For 47 sequences, remaining target (mRNA or protein) (fraction of control) results are on record in the OligoGym collection.

These antisense oligonucleotides have a phosphorothioate backbone; sugars and methylation of C are not fully specified.
Further: test concentration or dose not given here.

In one series the target is ITGB3. The note with it: ASO.
On to AAAGGCACAGGCAGCTCT, for which the remaining target (mRNA or protein) (fraction of control) was at least 1.

In the case of AAGCGGGTCACCTGGTCA, the remaining target (mRNA or protein) (fraction of control) is at least 1.

In the case of AAGGTAGACGTGGCCTCT, the remaining target (mRNA or protein) (fraction of control) came out at 0.71.

For the sequence ACACACACATAAACACAC, the remaining target (mRNA or protein) (fraction of control) is at least 1.

Sequence ACATACTGACATTCTCCC yielded a remaining target (mRNA or protein) (fraction of control) of at least 1.

A further series deals with MAP2K6. The note with it: ASO.
In the case of TTTCGACTGAGACATTTTCC, the remaining target (mRNA or protein) (fraction of control) was at least 1.

In the case of TTTTCCCCTTTCCTTTGATG, the remaining target (mRNA or protein) (fraction of control) is at least 1.

For the next series, the target named is SMAD2. The note with it: ASO.
Consider AAACAGCCTCTTGTATCG, for which the remaining target (mRNA or protein) (fraction of control) came out at 0.29.

The sequence AAACTTCCCCACCTATGT gave a remaining target (mRNA or protein) (fraction of control) of 0.18.

Consider AAAGCCATCTACAGTGAG, for which the remaining target (mRNA or protein) (fraction of control) worked out at 0.34.

As to AAGTGCTTGGTATGGTAA, the remaining target (mRNA or protein) (fraction of control) is 0.43.

As for AATGCTATGACAGAAGAG, the remaining target (mRNA or protein) (fraction of control) stood at 0.76.

As to ACAGATTCCACAAGGTGC, the remaining target (mRNA or protein) (fraction of control) stood at 0.22.

Consider ACTGTAGAGGTCCATTCA, for which the remaining target (mRNA or protein) (fraction of control) was 0.42.

In turn, AGATTACAGCCTGGTGGA displayed a remaining target (mRNA or protein) (fraction of control) of 0.57.

For AGCTGCTTCTCCGCCGCC, the remaining target (mRNA or protein) (fraction of control) stood at 0.27.

Turning to CACCCTTTCACAAAACTC, the remaining target (mRNA or protein) (fraction of control) was determined as 0.15.

CAGGTTCTGAGTAAGTAA showed a remaining target (mRNA or protein) (fraction of control) of 0.54.

On to CCTTCTTGTCATTTCTAC, for which the remaining target (mRNA or protein) (fraction of control) worked out at 0.57.

As for CGTGAATGGCAAGATGGA, the remaining target (mRNA or protein) (fraction of control) amounted to 0.47.

CTAATCGTCCTGTTTTCT yielded a remaining target (mRNA or protein) (fraction of control) of 0.33.

CTCACACCACTTTTCTTC returned a remaining target (mRNA or protein) (fraction of control) of 0.1.

Regarding CTCTCCTCCGCCTGCTCC, the remaining target (mRNA or protein) (fraction of control) worked out at 0.01.

CTCTTCACAACTGGCGGC yielded a remaining target (mRNA or protein) (fraction of control) of 0.16.

CTGAGCCAGAAGAGCAGC showed a remaining target (mRNA or protein) (fraction of control) of 0.18.

As to CTTCACCAGACTTTTCAC, the remaining target (mRNA or protein) (fraction of control) is 0.15.

CTTCCATCCCAGCAGTCT: the remaining target (mRNA or protein) (fraction of control) worked out at 0.1.

The sequence GAGACCTGGTTTGTTCAG had a remaining target (mRNA or protein) (fraction of control) of 0.46.

In turn, GAGAGCCTGTGTCCATAC yielded a remaining target (mRNA or protein) (fraction of control) of 0.29.

For the sequence GAGGTGGCGTTTCTGGAA, the remaining target (mRNA or protein) (fraction of control) amounted to 0.29.

Turning to GAGTGGTGATGGCTTTCT, the remaining target (mRNA or protein) (fraction of control) was 0.4.

GATAGTAAACAGTCCATA came in with a remaining target (mRNA or protein) (fraction of control) of 0.5.

GCGGAAGTTCTGTTAGGA: the remaining target (mRNA or protein) (fraction of control) worked out at 0.43.

Regarding GGAAAGAGTAGTAGGAGA, the remaining target (mRNA or protein) (fraction of control) worked out at 0.48.

Sequence GGCAAAACTGGTGTCTCA yielded a remaining target (mRNA or protein) (fraction of control) of 0.26.

On to GGTAACACATTTAGTATT, for which the remaining target (mRNA or protein) (fraction of control) was determined as 0.48.

Regarding GTTTCTCCAACCCTCTGA, the remaining target (mRNA or protein) (fraction of control) turned out to be 0.2.

As for TAAACCTAAGCAGAACCT, the remaining target (mRNA or protein) (fraction of control) worked out at 0.37.

Sequence TAACATTGGAGAGTAAAC showed a remaining target (mRNA or protein) (fraction of control) of 0.54.

For TATTACAGTTTTGAGTGG, the remaining target (mRNA or protein) (fraction of control) was determined as 0.52.

As to TCACTGCTTTCTCACACC, the remaining target (mRNA or protein) (fraction of control) turned out to be 0.08.

The sequence TCTCTGATAGTGGTAAGG gave a remaining target (mRNA or protein) (fraction of control) of 0.49.

Sequence TGCTCCTCCAGACCCACC returned a remaining target (mRNA or protein) (fraction of control) of 0.01.

In turn, TGTTGGTCACTTGTTTCT returned a remaining target (mRNA or protein) (fraction of control) of 0.58.

TTAGTGTTTTCTGGAATG showed a remaining target (mRNA or protein) (fraction of control) of 0.48.

Sequence TTCCTGCCCATTCTGCTC registered a remaining target (mRNA or protein) (fraction of control) of 0.08.

The sequence TTCGATGGGATACCTGGA displayed a remaining target (mRNA or protein) (fraction of control) of 0.99.
